Results reported in patent US20250147039A1, “Compounds for complexation of rare earth elements and/or s-, p-, d- block metals, their coordination compounds, peptide conjugates, method of their preparation and use thereof” (USTAV ORGANICKE CHEMIE A BIOCHEMIE AV CR V.V.I., priority 2021, published 2025).
Values belong to the molecule of their own block, whether it stands above or below them.

Legend:
[1] = Alkali metal dependent formation of 1,5-cz-Lig and 1,4-cz-Lig isomers from Lig at pH 10.2 (Chart 14); assay type: physicochemical; conditions: Borate/(M^I)2CO3 buffer pH 10.2
[2] = Formation of 1,5-cz-[Ln(Lig)] from Lig and Ln^III ions (metal dependent click-zip), MOPS/NaOH buffer pH 7.0, analytical HPLC (Charts 1, 2); conditions: MOPS/NaOH buffer pH 7.0
[3] = Formation of 1,5-cz-[M(Lig)] from Lig and M^III ions (metal dependent click-zip) (Charts 4, 5); assay type: physicochemical; conditions: MOPS/NaOH buffer pH 7.0, TD728, TD827 in 50% i-PrOH; for conversion to 1,5-cz-[M(Lig)], Y^III: TD714 sum of two diastereoisomers
[4] = Formation of 1,5-cz-[M(Lig)] from Lig and M^II ions (metal dependent click-zip) (Charts 6, 7); assay type: physicochemical; conditions: MOPS/NaOH buffer pH 7.0; for conversion to 1,5-cz-[M(Lig)], Ca^II / conversion to 1,5-cz-[M(Lig)], Cd^II: TD728 in 50% i-PrOH
[5] = B: 1 day at 80° C., visible analyte free precipitate
[6] = 1 hour at 80° C., TD714 sum of two diastereoisomers

conversion to 1,4-cz-Lig isomer, Cs^I ([1]; B: 1 day at 80° C.): 44%
conversion to 1,4-cz-Lig isomer, K^I ([1]; B: 1 day at 80° C.): 46%
conversion to 1,4-cz-Lig isomer, Na^I ([1]; B: 1 day at 80° C.): 7%
conversion to 1,4-cz-Lig isomer, Rb^I ([1]; B: 1 day at 80° C.): 45%
conversion to 1,5-cz-Lig isomer, Cs^I ([1]; B: 1 day at 80° C.): 9%
conversion to 1,5-cz-Lig isomer, K^I ([1]; B: 1 day at 80° C.): 10%
conversion to 1,5-cz-Lig isomer, Na^I ([1]; B: 1 day at 80° C.): 81%
conversion to 1,5-cz-Lig isomer, Rb^I ([1]; B: 1 day at 80° C.): 9%
conversion to 1,4-cz-Lig isomer, Li^I [1, 5]: 12%
conversion to 1,5-cz-Lig isomer, Li^I [1, 5]: 15%
conversion to 1,5-cz-[Ln(Lig)], Ce^III ([2]; after 1 week at 80° C.): 40%
conversion to 1,5-cz-[Ln(Lig)], Ce^III ([2]; after 1 hour at 80° C.): 1%
conversion to 1,5-cz-[Ln(Lig)], Dy^III ([2]; after 1 week at 80° C.): 91%
conversion to 1,5-cz-[Ln(Lig)], Dy^III ([2]; after 1 hour at 80° C.): 23%
conversion to 1,5-cz-[Ln(Lig)], Er^III ([2]; after 1 week at 80° C.): 93%
conversion to 1,5-cz-[Ln(Lig)], Er^III ([2]; after 1 hour at 80° C.): 34%
conversion to 1,5-cz-[Ln(Lig)], Eu^III ([2]; after 1 week at 80° C.): 85%
conversion to 1,5-cz-[Ln(Lig)], Eu^III ([2]; after 1 hour at 80° C.): 7%
conversion to 1,5-cz-[Ln(Lig)], Gd^III ([2]; after 1 week at 80° C.): 85%
conversion to 1,5-cz-[Ln(Lig)], Gd^III ([2]; after 1 hour at 80° C.): 9%
conversion to 1,5-cz-[Ln(Lig)], Ho^III ([2]; after 1 week at 80° C.): 93%
conversion to 1,5-cz-[Ln(Lig)], Ho^III ([2]; after 1 hour at 80° C.): 26%
conversion to 1,5-cz-[Ln(Lig)], La^III ([2]; after 1 week at 80° C.): 4%
conversion to 1,5-cz-[Ln(Lig)], La^III ([2]; after 1 hour at 80° C.): 0%
conversion to 1,5-cz-[Ln(Lig)], Lu^III ([2]; after 1 week at 80° C.): 93%
conversion to 1,5-cz-[Ln(Lig)], Lu^III ([2]; after 1 hour at 80° C.): 37%
conversion to 1,5-cz-[Ln(Lig)], Nd^III ([2]; after 1 week at 80° C.): 73%
conversion to 1,5-cz-[Ln(Lig)], Nd^III ([2]; after 1 hour at 80° C.): 3%
conversion to 1,5-cz-[Ln(Lig)], Pr^III ([2]; after 1 week at 80° C.): 80%
conversion to 1,5-cz-[Ln(Lig)], Pr^III ([2]; after 1 hour at 80° C.): 2%
conversion to 1,5-cz-[Ln(Lig)], Sm^III ([2]; after 1 week at 80° C.): 82%
conversion to 1,5-cz-[Ln(Lig)], Sm^III ([2]; after 1 hour at 80° C.): 5%
conversion to 1,5-cz-[Ln(Lig)], Tb^III ([2]; after 1 week at 80° C.): 92%
conversion to 1,5-cz-[Ln(Lig)], Tb^III ([2]; after 1 hour at 80° C.): 17%
conversion to 1,5-cz-[Ln(Lig)], Tm^III ([2]; after 1 week at 80° C.): 94%
conversion to 1,5-cz-[Ln(Lig)], Tm^III ([2]; after 1 hour at 80° C.): 40%
conversion to 1,5-cz-[Ln(Lig)], Yb^III ([2]; after 1 week at 80° C.): 93%
conversion to 1,5-cz-[Ln(Lig)], Yb^III ([2]; after 1 hour at 80° C.): 40%
conversion to 1,5-cz-[M(Lig)], Y^III ([3]; 1 week at 80° C.): 89%
conversion to 1,5-cz-[M(Lig)], Y^III ([3]; 1 hour at 80° C.): 22%
conversion to 1,5-cz-[M(Lig)], Ba^II ([4]; 1 week at 80° C.): 0%
conversion to 1,5-cz-[M(Lig)], Sr^II ([4]; 1 week at 80° C.): 0%
conversion to 1,5-cz-[M(Lig)], Ca^II ([4]; 1 week at 80° C.): 6%
conversion to 1,5-cz-[M(Lig)], Cd^II ([4]; 1 week at 80° C.): 92%
conversion to 1,5-cz-[M(Lig)], Ba^II ([4]; 1 hour at 80° C.): 0%
conversion to 1,5-cz-[M(Lig)], Sr^II ([4]; 1 hour at 80° C.): 0%
conversion to 1,5-cz-[M(Lig)], Ca^II ([4]; 1 hour at 80° C.): 0%
conversion to 1,5-cz-[M(Lig)], Cd^II [4, 6]: 89%
Structure (SMILES): C#Cc1cccc(CN2CCN(CC(=O)O)CCN(Cc3cccc(CN=[N+]=[N-])n3)CCN(CP(=O)(O)O)CC2)n1 [TD714]

conversion to 1,4-cz-Lig isomer, Cs^I ([1]; A: 1 hour at 80° C.): 2%
conversion to 1,4-cz-Lig isomer, K^I ([1]; A: 1 hour at 80° C.): 2%
conversion to 1,4-cz-Lig isomer, Li^I ([1]; A: 1 hour at 80° C.): 1%
conversion to 1,4-cz-Lig isomer, Na^I ([1]; A: 1 hour at 80° C.): 2%
conversion to 1,4-cz-Lig isomer, Rb^I ([1]; A: 1 hour at 80° C.): 2%
conversion to 1,5-cz-Lig isomer, Cs^I ([1]; A: 1 hour at 80° C.): 2%
conversion to 1,5-cz-Lig isomer, K^I ([1]; A: 1 hour at 80° C.): 2%
conversion to 1,5-cz-Lig isomer, Li^I ([1]; A: 1 hour at 80° C.): 12%
conversion to 1,5-cz-Lig isomer, Na^I ([1]; A: 1 hour at 80° C.): 30%
conversion to 1,5-cz-Lig isomer, Rb^I ([1]; A: 1 hour at 80° C.): 2%
conversion to 1,4-cz-Lig isomer, Cs^I ([1]; B: 1 day at 80° C.): 31%
conversion to 1,4-cz-Lig isomer, K^I ([1]; B: 1 day at 80° C.): 31%
conversion to 1,4-cz-Lig isomer, Na^I ([1]; B: 1 day at 80° C.): 4%
conversion to 1,4-cz-Lig isomer, Rb^I ([1]; B: 1 day at 80° C.): 31%
conversion to 1,5-cz-Lig isomer, Cs^I ([1]; B: 1 day at 80° C.): 21%
conversion to 1,5-cz-Lig isomer, K^I ([1]; B: 1 day at 80° C.): 23%
conversion to 1,5-cz-Lig isomer, Na^I ([1]; B: 1 day at 80° C.): 89%
conversion to 1,5-cz-Lig isomer, Rb^I ([1]; B: 1 day at 80° C.): 21%
conversion to 1,4-cz-Lig isomer, Li^I [1, 5]: 6%
conversion to 1,5-cz-Lig isomer, Li^I [1, 5]: 86%
conversion to 1,5-cz-[Ln(Lig)], Ce^III ([2]; after 1 week at 80° C.): 0%
conversion to 1,5-cz-[Ln(Lig)], Ce^III ([2]; after 1 hour at 80° C.): 0%
conversion to 1,5-cz-[Ln(Lig)], Dy^III ([2]; after 1 week at 80° C.): 37%
conversion to 1,5-cz-[Ln(Lig)], Dy^III ([2]; after 1 hour at 80° C.): 1%
conversion to 1,5-cz-[Ln(Lig)], Er^III ([2]; after 1 week at 80° C.): 26%
conversion to 1,5-cz-[Ln(Lig)], Er^III ([2]; after 1 hour at 80° C.): 1%
conversion to 1,5-cz-[Ln(Lig)], Eu^III ([2]; after 1 week at 80° C.): 31%
conversion to 1,5-cz-[Ln(Lig)], Eu^III ([2]; after 1 hour at 80° C.): 1%
conversion to 1,5-cz-[Ln(Lig)], Gd^III ([2]; after 1 week at 80° C.): 28%
conversion to 1,5-cz-[Ln(Lig)], Gd^III ([2]; after 1 hour at 80° C.): 0%
conversion to 1,5-cz-[Ln(Lig)], Ho^III ([2]; after 1 week at 80° C.): 31%
conversion to 1,5-cz-[Ln(Lig)], Ho^III ([2]; after 1 hour at 80° C.): 1%
conversion to 1,5-cz-[Ln(Lig)], La^III ([2]; after 1 week at 80° C.): 0%
conversion to 1,5-cz-[Ln(Lig)], La^III ([2]; after 1 hour at 80° C.): 0%
conversion to 1,5-cz-[Ln(Lig)], Lu^III ([2]; after 1 week at 80° C.): 10%
conversion to 1,5-cz-[Ln(Lig)], Lu^III ([2]; after 1 hour at 80° C.): 1%
conversion to 1,5-cz-[Ln(Lig)], Nd^III ([2]; after 1 week at 80° C.): 43%
conversion to 1,5-cz-[Ln(Lig)], Nd^III ([2]; after 1 hour at 80° C.): 4%
conversion to 1,5-cz-[Ln(Lig)], Pr^III ([2]; after 1 week at 80° C.): 55%
conversion to 1,5-cz-[Ln(Lig)], Pr^III ([2]; after 1 hour at 80° C.): 5%
conversion to 1,5-cz-[Ln(Lig)], Sm^III ([2]; after 1 week at 80° C.): 42%
conversion to 1,5-cz-[Ln(Lig)], Sm^III ([2]; after 1 hour at 80° C.): 1%
conversion to 1,5-cz-[Ln(Lig)], Tb^III ([2]; after 1 week at 80° C.): 41%
conversion to 1,5-cz-[Ln(Lig)], Tb^III ([2]; after 1 hour at 80° C.): 1%
conversion to 1,5-cz-[Ln(Lig)], Tm^III ([2]; after 1 week at 80° C.): 18%
conversion to 1,5-cz-[Ln(Lig)], Tm^III ([2]; after 1 hour at 80° C.): 1%
conversion to 1,5-cz-[Ln(Lig)], Yb^III ([2]; after 1 week at 80° C.): 15%
conversion to 1,5-cz-[Ln(Lig)], Yb^III ([2]; after 1 hour at 80° C.): 1%
conversion to 1,5-cz-[M(Lig)], Sc^III ([3]; 1 week at 80° C.): 0%
conversion to 1,5-cz-[M(Lig)], Y^III ([3]; 1 week at 80° C.): 14%
conversion to 1,5-cz-[M(Lig)], Sc^III ([3]; 1 hour at 80° C.): 0%
conversion to 1,5-cz-[M(Lig)], Y^III ([3]; 1 hour at 80° C.): 0%
conversion to 1,5-cz-[M(Lig)], Ba^II ([4]; 1 week at 80° C.): 0%
conversion to 1,5-cz-[M(Lig)], Sr^II ([4]; 1 week at 80° C.): 0%
conversion to 1,5-cz-[M(Lig)], Ca^II ([4]; 1 week at 80° C.): 0%
conversion to 1,5-cz-[M(Lig)], Cd^II ([4]; 1 week at 80° C.): 96%
conversion to 1,5-cz-[M(Lig)], Ba^II ([4]; 1 hour at 80° C.): 0%
conversion to 1,5-cz-[M(Lig)], Sr^II ([4]; 1 hour at 80° C.): 0%
conversion to 1,5-cz-[M(Lig)], Ca^II ([4]; 1 hour at 80° C.): 0%
conversion to 1,5-cz-[M(Lig)], Cd^II [4, 6]: 92%
Structure (SMILES): C#Cc1cccc(CN2CCN(CP(=O)(O)c3ccccc3)CCN(Cc3cccc(CN=[N+]=[N-])n3)CCN(CP(=O)(O)c3ccccc3)CC2)n1 [TD921]
